One block for each molecule: values may come before it.
Tests used:
[1] = target: T1, recombinant tyrosine kinase (TK) domain of FGFR3 (Homo sapiens, UniProt P22607); experiment: Cell-free FGFR3 kinase assay with STAT1 as substrate; assay type: biochemical; settings: added directly to the kinase reaction; FIG. 4
T1 construct: recombinant tyrosine kinase (TK) domain of FGFR3 (Glu-322-Thr-806; Cell Signaling); purchased Cell Signaling
Protocol: FIG. 4, in accordance with an embodiment herein, depicts 4,4′,4″,4′″-[carbonyl-bis[imino-5,1,3-benzenetriyl bis-{carbonylimino}]]tetrakis-{benzene-1,3-disulfonic acid} inhibits FGFR3 activity in a kinase assay. (a, b) Cell-free kinase assays were carried out as described herein, with recombinant tyrosine kinase (TK) domain of FGFR3 as a kinase, recombinant STAT1 as a substrate, and NF449 added directly to the kinase reaction. FGFR3-mediated phosphorylation of STAT1 was detected by WB with P-STAT1 (Y^701) antibody. The membrane was reprobed with FGFR3 and STAT1 antibodies to control for kinase and substrate quantity. The sample with ATP omitted serves as a negative control for the kinase reaction. Note the FGFR3-mediated phosphorylation of STAT1 is inhibited by 4,4′,4″,4′″-[carbonyl-bis[imino-5,1,3-benzenetriyl bis-{carbonylimino}]]tetrakis-{benzene-1,3-disulfonic acid}. The P-STAT1 and STAT1 signal was quantified by densitometry and expressed as a ratio between P-STAT1 and STAT1 signal for each given sample (b, lower graph). (c) The FGFR3 kinase assay was carried-out as described in (a) with 4,4′,4″,4′″-[carbonyl-bis[imino-5,1,3-benzenetriyl bis-{carbonylimino}]]tetrakis-{benzene-1,3-disulfonic acid}, 8,8′-[carbonylbis[imino-3,1-phenylenecarbonylimino{4-methyl-3,1-phenylene}carbonylimino]]bis-1,3,5-naphthalenetrisulfonic acid or 8,8′-[carbonylbis[imino-3,1-phenylene]]bis-{1,3,5-naphthalenetrisulfonic acid} added to the kinase reaction. Note the differential effects of 8,8′-[carbonylbis[imino-3,1-phenylenecarbonylimino{4-methyl-3,1-phenylene}carbonylimino]]bis-1,3,5-naphthalenetrisulfonic acid and 8,8′-[carbonylbis[imino-3,1-phenylene]]Bis-{1,3,5-naphthalenetrisulfonic acid} on the FGFR3-mediated phosphorylation of STAT1, which corresponds to their activity in the RCS growth-arrest experiment (lower graph). Data are an average from four wells with the indicated standard deviation. Statistically significant rescue of the growth arrest is indicated (Student's I-test; *-p<0.01).
OPM2 and KMS11 cells were lysed in ice-cold immunoprecipitation buffer (50 mM Tris-HCl pH 7.4, 150 mM NaCl, 0.5% NP-40, 1 mM EDTA, 25 mM NaF) supplemented with proteinase inhibitors and 10 mM sodium orthovanadate. Protein samples were resolved by SDS-PAGE and transferred onto a PVDF membrane. The following antibodies were used: Erk1/2, P-Erk1/2^T202/Y204, STAT1, P-STAT1^Y701 (Cell Signaling, Beverly, Mass.) and FGFR3 (Santa Cruz Biotechnology, Santa Cruz, Calif.). Western blotting signal was quantified by determining the integrated optical density (I.O.D.) of a given band using Scion Image software (Scion Corporation, Frederick, Mass.). Immunoprecipitations and FGFR3 kinase assays were performed as described. Briefly, the pRK7 vector encoding C-terminally FLAG-tagged K650E-FGFR3 was transfected into CHO cells using FuGENE6 reagent according to the manufacturer's protocol (Roche Applied Science, Indianapolis, Ind.). 48 hours after transfection, cells were treated with 20 ng/ml of FGF2 for 15 minutes and K650E-FGFR3 was immunoprecipitated from 800 μg of cell lysate protein using 4 μg of anti-FLAG antibody (Sigma-Aldrich, St. Louis, Mo.). Cells transfected with a plasmid encoding green fluorescent protein (pCCEY) serve as a negative control for the immunoprecipitation. Immunocomplexes were washed two times with kinase buffer (60 mM HEPES-NaOH pH 7.5, 3 mM MgCl2, 3 mM MnCl2, 3 μM Na3VO4, 1.2 mM dithiothreitol), and the kinase reactions were performed for 30 minutes at 30° C. in the presence of 2.5 μg of polyethylene glycol, 10 μM ATP, 300 ng of recombinant STAT1 (Active Motif, Carlsbad, Calif.) as a substrate, and NF449 added directly to the kinase reaction. Kinase assays utilizing recombinant tyrosine kinase (TK) domain of FGFR3 (Glu-322-Thr-806; Cell Signaling) were carried-out similarly, with 300 ng of kinase used in 50 μl reaction, and suramin, NF449 and NF023 added directly to the kinase reaction. […]

[2] = test system: FGF2/FGFR3-mediated growth-arrest of rat chondrosarcoma (RCS) cells
Excerpt: In this assay, the FGF2/FGFR3-mediated growth-arrest of rat chondrosarcoma (RCS) cells is used as a reporter, thus allowing for elimination of toxic compounds as false-positive hits (Krejci, et al., Invest New Drugs 2007, 25: 391-395).
Rat chondrosarcoma chondrocytes (RCS), chinese hamster ovary (CHO) cells and MM cell lines OPM2 and KMS11 were propagated in DMEM, Opti-MEM or RPMI media (Gibco, Gaitherbsburg, Md.), supplemented with 10% fetal bovine serum (Atlanta Biological, Nordeross, Ga.) and antibiotics. […] For the RCS growth-arrest experiments shown at FIGS. 1 and 4c, 1×10^4 RCS chondrocytes were seeded in 24-well tissue culture plates (Costar, Cambridge, Mass.), treated as indicated for 72 hours, and counted. FGF2 was obtained from R&D Systems (Minneapolis, Minn.); C-natriuretic peptide, suramin, NF023 and NF449 were from Calbiochem (San Diego, Calif.).

[3] = target: T1, recombinant tyrosine kinase (TK) domain of FGFR3; settings: previous work [9, 12]; cited from earlier work
[4] = test system: FGF2/FGFR3-mediated growth-arrest of rat chondrosarcoma (RCS) cells; settings: previous work [9, 12]; cited from earlier work

T1 sequence (P22607 322-806): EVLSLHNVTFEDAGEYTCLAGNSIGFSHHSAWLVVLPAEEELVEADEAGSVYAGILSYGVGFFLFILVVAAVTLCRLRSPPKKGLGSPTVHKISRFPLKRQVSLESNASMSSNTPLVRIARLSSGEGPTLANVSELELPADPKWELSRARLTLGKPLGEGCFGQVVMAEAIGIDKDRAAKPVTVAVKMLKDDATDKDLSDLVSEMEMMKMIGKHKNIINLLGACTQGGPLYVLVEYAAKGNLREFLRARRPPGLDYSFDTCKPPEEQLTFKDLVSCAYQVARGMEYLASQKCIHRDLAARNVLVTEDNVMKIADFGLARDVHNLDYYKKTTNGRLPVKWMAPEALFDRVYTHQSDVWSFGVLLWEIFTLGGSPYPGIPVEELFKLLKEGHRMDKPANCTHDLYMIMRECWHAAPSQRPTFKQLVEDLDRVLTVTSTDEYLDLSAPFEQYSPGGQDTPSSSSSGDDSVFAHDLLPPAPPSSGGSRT

effect on FGFR3 kinase activity (in words) [1]: inhibited FGFR3 kinase activity
Molecule: Cc1ccc(C(=O)Nc2ccc(S(=O)(=O)O)c3cc(S(=O)(=O)O)cc(S(=O)(=O)O)c23)cc1NC(=O)c1cccc(NC(=O)Nc2cccc(C(=O)Nc3cc(C(=O)Nc4ccc(S(=O)(=O)O)c5cc(S(=O)(=O)O)cc(S(=O)(=O)O)c45)ccc3C)c2)c1 [suramin, 8,8′-[carbonylbis[imino-3,1-phenylenecarbonylimino{4-methyl-3,1-phenylene}carbonylimino]]bis-1,3,5-naphthalenetrisulfonic acid, reference compound]
effect on FGF2/FGFR3-mediated growth arrest (in words) ([2]; RCS chondrocytes, FIGS. 1, 4c): reversed the FGF2/FGFR3-mediated growth arrest

Molecule: C-natriuretic peptide [CNP, reference compound]
rescue of the FGF2-mediated RCS growth-arrest ([2]; FIG. 1b, each agent alone, 72 hours): ~23%

Molecule: Cc1c[nH]c(/C=C2\C(=O)Nc3ccccc32)c1CCC(=O)O [SU5402]
concentration range inhibiting FGFR3 kinase activity [3]: 2 to 20 µM
concentration range inhibiting RCS growth arrest [4]: 2 to 20 µM

— patent publication US20110166223A1, “METHODS OF INHIBITING FGFR3 SIGNALING” (CEDARS-SINAI MEDICAL CENTER, priority 2008, published 2011)
